Experimental data from patent publication US8765754B2, “Pyrrolotriazine compounds” (Locus Pharmaceuticals, Inc., priority 2009, dated 2014).

Columns and labels:
[1] = molecular target: T1, Btk (Homo sapiens, UniProt Q06187); assay: Btk in vitro radioassay (33P-ATP, Poly(Glu,Tyr)); type: biochemical; settings: Btk inhibition; reported after Biological Example 2; read-out: IC50 over Btk
T1 construct: purchased Invitrogen
Experimental: The diluted solution (1 μl) of the compound of the present invention in DMSO was added to 96-well assay plates. Additionally, Btk kinase solution (39 μL) composed of Btk (1.3 nM, Invitrogen), Tris (12.5 mM; pH7.5), Triton X-100 (0.01%), glycerol (5%), MgCl2 (10 mM), EGTA (1 mM), glycerol 2-phosphate (5 mM), DTT (2 mM) and sodium orthovanadate (0.5 mM) was added to 96-well assay plate. The solution was pre-incubated for 20 minutes at 30° C. Then ATP/peptide solution (10 μL) composed of Poly (Glu, Tyr) (0.20 mg/mL, Sigma) and ^33P-ATP (47 μM, PerkinElmer) was added. After incubating at 30° C. for 12 minutes, the reaction was stopped by adding 10 μL of 0.6M phosphoric acid to each well. The each reaction from the 96-well assay plate was transferred to 96-well filter plate. The reaction mixture was analyzed on the radioactive survey equipment (TopCount NXT HTS; PerkinElmer) to read count efficiency.
The inhibition rate (%) of the compound of the present invention was calculated with the following formula: Inhibition rate(%)={1−(counts−B100)/(B0−B100)}×100 B0: average counts for 0% inhibition control (i.e., no compound) B100: average counts for 100% inhibition control (i.e., no enzyme)
The value of 50% inhibition rate (IC50) for the compounds of the present invention was determined from inhibition curve based on inhibition rate at each concentration of the compound of the present invention.

[2] = molecular target: LynA (Homo sapiens, UniProt P07948); assay: Z'-lyte kinase assay (FRET), inhibitory activity to other kinases: LynA; type: biochemical; settings: selectivity ratio, Biological Example 1 and 2
Experimental: (§1) Btk tyrosine phosphorylation reaction was carried out using Z′-lyte kinase assay kit—Tyr 1 peptide (Invitrogen) consisting of the following reagent (Tyr 1 peptide, Thy 1 phospho-peptide, 5× kinase buffer, ATP, development regent B, development buffer, and stop reagent) and Btk. Btk activity was determined using fluorescence resonance energy transfer (FRET) method.
(§2) The diluted solution (5 μl) of the compound of the present invention in dimethyl sulfoxide (DMSO; Sigma) was added to 96-well assay plates. Additionally, the peptide/kinase solution (10 μl) composed of DL-Dithiothreitol (DTT; 2 mM), Tyr 1 peptide (2 μM), kinase buffer and Btk (5 nM, Invitrogen) was added to the assay plates and the reaction solution was pre-incubated for 20 minutes at 25° C. Then, the ATP solution (5 μl) composed of adenosine triphosphate (ATP; 36 μM) and kinase buffer was added and the reaction solution was incubated for 1 hour at 25° C. After the incubation, the development solution B (10 μl) composed of development reagent B and development buffer was added and the reaction solution was incubated for 1 hour at 25° C. The stop solution (10 μl) was added to each well to arrest the enzyme reaction. The fluorescence emission of each well was measured on a fluorescence plate reader at a wavelength of 445 nm and 520 nm. The phospholyration ratio was determined by the emission rate of the fluorescence at 445 nm to 520 nm according to manufacturer's instruction.
(§3) The inhibition rate (%) of the compounds of the present invention was calculated with the following formula: Inhibition rate(%)=1−{(AX−AB)/(AC−AB)}×100 AX: phospholyration ratio at addition of the compound of the present invention AB: phospholyration ratio at blank AC: phospholyration ratio at only addition of DMSO
(§4) The value of 50% inhibition rate (IC50) for the compound of the present invention was determined from inhibition curve based on inhibition rate at each concentration of the compound of the present invention.
(§5) Research for inhibitory activity to other kinases (such as Lck, Fyn, LynA) was performed in similar procedure above described.

[3] = molecular target: Lck (Homo sapiens, UniProt P06239); assay: Z'-lyte kinase assay (FRET), inhibitory activity to other kinases: Lck; type: biochemical; settings: selectivity ratio, Biological Example 1 and 2
Experimental: as §1
The diluted solution (5 μl) of the compound of the present invention in dimethyl sulfoxide (DMSO; Sigma) was added to 96-well assay plates. Additionally, the peptide/kinase solution (10 μl) composed of DL-Dithiothreitol (DTT; 2 mM), Tyr 1 peptide (2 μM), kinase buffer and Btk (5 nM, Invitrogen) was added to the assay plates and the reaction solution was pre-incubated for 20 minutes at 25° C. […] The fluorescence emission of each well was measured on a fluorescence plate reader at a wavelength of 445 nm and 520 nm. The phospholyration ratio was determined by the emission rate of the fluorescence at 445 nm to 520 nm according to manufacturer's instruction.
as §3, with “DMSO […]” for “DMSO”

[4] = molecular target: Fyn (Homo sapiens, UniProt P06241); assay: Z'-lyte kinase assay (FRET), inhibitory activity to other kinases: Fyn; type: biochemical; settings: selectivity ratio, Biological Example 1 and 2
Experimental: as §1, §2, §3, §4, §5

[5] = Pharmacokinetic profile in rats; type: in vivo; settings: rat, plasma, fasted male Sprague-Dawley rats
Experimental: Using fasted male Sprague-Dawley rats (250-400 gram; Hilltop Labs), the plasma concentration of the compound of the present invention after intravenous administration at a dose of 1 mg/kg and the plasma concentration after oral gavage administration at a dose of 2 mg/kg were measured. The blood samples (˜0.25 mL) was collected from a rat jugular vein under an unanesthetized condition 1, 5, 15, and 30 minutes, and 1, 2, 4, 8, 12 and 24 hours after intravenous administration, and 5, 15 and 30 minutes, and 1, 1.5, 2, 4, 8, 12 and 24 hours after oral administration. Then the blood samples placed into chilled tubes containing sodium heparin and kept on ice until centrifugation. The samples were centrifuged at a temperature of 4° C. at 13,000 rpm for 5 minutes and the supernatant was collected as plasma. The concentration of the compound in plasma was measured with LC/MS/MS (Acquity HPLC coupled with a quattromicro mass spectrometer, Waters Corp.). From the obtained plasma concentration, an area under the curve (AUC, ng·h/ml), a maximum plasma concentration.(Cmax, μg/mL) and a clearance (CL, mL/hr/kg) were calculated. In addition, Bioavailability (B.A.) of the compound of the present invention was calculated from AUC in oral administration and AUC in intravenous administration.

[6] = tested on: mouse splenocytes; assay: B cell activation assay using mouse splenocytes (anti-IgM stimulated CD69 in CD19 positive cells, FACS); type: cell-based; settings: Splenocyte; anti-mouse IgM stimulation 6 hours; CD69 MFI in CD19 positive cells
Experimental: Splenocytes collected from C57B1/6 or Balb/c mice were suspended in RPMI 1640 (Invitrogen), supplemented with 10% fetal bovine serum (FBS). The diluted solution (1 μl) of the compound of the present invention and the suspension of the mouse splenocytes (49 μl) were added to 96-well plate and incubated at 37° C. for 60 min. Cells were stimulated with 10 μl of anti-mouse IgM (Jackson Immunoresearch). Samples were stimulated at 37° C. for 6 hours, 5% CO2 and treated with 10 μl/well Fc block (BD Biosciences) for 15 min on ice in the dark. The diluted solution (10 μl) of antibody (1:2:2 mix of each, Allphycocyanin (APC)-labeled anti-mouse CD3e, Phycoerythrin (PE)-labeled anti-mouse CD19 and Fluorescein Isothiocyanate (FITC) labeled anti-mouse CD69) was added to 96-well collection plate. Samples were transferred to the 96-well collection plate and incubated for 30 min on ice in the dark. Samples were treated with Lyse/Fix solution (1.6 ml/well, BD biosciences) at 37° C. in collection plates and were incubated for at 37° C. for 15 min. Cells were collected by centrifugation at 2000 rpm for 10 min repeatedly, resuspended in stain buffer (BD Biosciences) and analyzed by FACS to determine mean fluorescence intensity (MFI) of CD69 in the CD19 positive cell population. […]

[7] = oral 2 mg/kg / i.v. 1 mg/kg study, route of the value not given

LynA, sequence (P07948 whole entry): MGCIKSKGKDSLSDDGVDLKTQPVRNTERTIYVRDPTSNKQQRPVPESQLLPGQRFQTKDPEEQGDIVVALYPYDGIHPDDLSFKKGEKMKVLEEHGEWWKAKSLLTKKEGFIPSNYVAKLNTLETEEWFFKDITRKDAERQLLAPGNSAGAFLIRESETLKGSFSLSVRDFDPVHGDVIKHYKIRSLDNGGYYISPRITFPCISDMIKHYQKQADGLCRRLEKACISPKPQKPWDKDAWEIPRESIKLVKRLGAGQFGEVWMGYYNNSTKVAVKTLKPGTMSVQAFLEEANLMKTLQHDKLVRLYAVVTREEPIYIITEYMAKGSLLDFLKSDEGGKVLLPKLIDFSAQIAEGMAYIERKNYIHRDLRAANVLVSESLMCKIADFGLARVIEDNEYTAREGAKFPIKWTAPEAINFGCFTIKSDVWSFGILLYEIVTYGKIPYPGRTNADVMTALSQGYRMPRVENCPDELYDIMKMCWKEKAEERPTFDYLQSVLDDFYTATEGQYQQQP
T1 sequence (Q06187 whole entry): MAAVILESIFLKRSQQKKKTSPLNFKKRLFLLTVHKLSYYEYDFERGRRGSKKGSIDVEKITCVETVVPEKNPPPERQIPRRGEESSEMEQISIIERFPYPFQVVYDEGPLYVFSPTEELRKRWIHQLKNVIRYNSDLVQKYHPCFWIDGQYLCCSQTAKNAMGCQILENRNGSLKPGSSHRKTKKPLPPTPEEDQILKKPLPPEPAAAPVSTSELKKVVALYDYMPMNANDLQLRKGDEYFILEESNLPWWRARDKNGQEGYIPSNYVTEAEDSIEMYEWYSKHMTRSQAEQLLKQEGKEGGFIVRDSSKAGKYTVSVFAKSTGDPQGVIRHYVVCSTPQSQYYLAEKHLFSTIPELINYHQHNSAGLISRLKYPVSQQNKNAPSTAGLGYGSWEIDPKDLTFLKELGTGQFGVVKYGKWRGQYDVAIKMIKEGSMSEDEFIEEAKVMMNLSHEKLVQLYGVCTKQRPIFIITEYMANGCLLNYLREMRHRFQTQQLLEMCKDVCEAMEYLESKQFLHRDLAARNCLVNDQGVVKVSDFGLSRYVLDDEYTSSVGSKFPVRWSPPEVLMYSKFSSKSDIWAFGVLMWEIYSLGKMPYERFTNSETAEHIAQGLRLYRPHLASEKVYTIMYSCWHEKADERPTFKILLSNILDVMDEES
Fyn, sequence (P06241 whole entry): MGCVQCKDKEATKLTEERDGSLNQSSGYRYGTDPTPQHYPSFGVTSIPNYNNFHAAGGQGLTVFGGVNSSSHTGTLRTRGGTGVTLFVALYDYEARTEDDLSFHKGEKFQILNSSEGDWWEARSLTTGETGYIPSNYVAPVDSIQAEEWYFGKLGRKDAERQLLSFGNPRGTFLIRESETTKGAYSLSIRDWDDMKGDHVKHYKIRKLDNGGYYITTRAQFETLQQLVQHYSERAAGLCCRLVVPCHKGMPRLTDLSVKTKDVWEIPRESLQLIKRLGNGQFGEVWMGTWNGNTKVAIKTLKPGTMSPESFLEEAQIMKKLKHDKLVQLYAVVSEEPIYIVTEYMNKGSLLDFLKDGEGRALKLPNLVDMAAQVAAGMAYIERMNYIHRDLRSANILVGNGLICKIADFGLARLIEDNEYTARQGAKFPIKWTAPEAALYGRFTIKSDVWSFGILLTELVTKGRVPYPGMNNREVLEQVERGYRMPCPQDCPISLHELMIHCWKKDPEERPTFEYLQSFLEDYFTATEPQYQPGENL
Lck, sequence (P06239 whole entry): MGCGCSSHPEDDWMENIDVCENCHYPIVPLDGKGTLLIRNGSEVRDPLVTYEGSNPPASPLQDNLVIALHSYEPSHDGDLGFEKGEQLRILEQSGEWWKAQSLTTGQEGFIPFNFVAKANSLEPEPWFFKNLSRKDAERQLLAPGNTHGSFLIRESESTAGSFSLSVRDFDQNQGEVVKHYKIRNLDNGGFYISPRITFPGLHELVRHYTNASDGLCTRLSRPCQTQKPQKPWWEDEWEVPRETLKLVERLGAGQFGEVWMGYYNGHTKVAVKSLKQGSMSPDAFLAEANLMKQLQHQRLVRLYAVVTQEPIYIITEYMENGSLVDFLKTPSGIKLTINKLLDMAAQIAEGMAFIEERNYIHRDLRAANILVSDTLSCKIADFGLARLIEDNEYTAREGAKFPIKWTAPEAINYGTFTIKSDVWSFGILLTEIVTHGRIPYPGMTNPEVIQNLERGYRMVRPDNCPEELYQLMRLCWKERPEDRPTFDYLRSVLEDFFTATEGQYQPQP

SMILES	IC50 [1]	LynA[IC50]/Btk[IC50] [2]	Fyn[IC50]/Btk[IC50] [4]	other results
COc1cccc(-c2c(CCCN(C)C)c(-c3ccc(Oc4ccccc4)cc3)c3c(N)ncnn23)c1 [Example 16(1), 6-(3-(dimethylamino)propyl)-7-(3-methoxyphenyl)-5-(4-phenoxyphenyl)pyrrolo[2,1-f][1,2,4]triazin-4-amine]	5.8 nM	–	–	–
COc1cccc(-c2c(CCCN3CCCC3)c(-c3ccc(Oc4ccccc4)cc3)c3c(N)ncnn23)c1 [Example 16(2), 7-(3-methoxyphenyl)-5-(4-phenoxyphenyl)-6-(3-(pyrrolidin-1-yl)propyl)pyrrolo[2,1-f][1,2,4]triazin-4-amine]	65 nM	–	–	–
COc1cccc(-c2c(CCCN3CCCC3)c(-c3ccc(Oc4ccc(Cl)c(Cl)c4)c(OC)c3)c3c(N)ncnn23)c1 [Example 16(3), 5-(4-(3,4-dichlorophenoxy)-3-methoxyphenyl)-7-(3-methoxyphenyl)-6-(3-(pyrrolidin-1-yl)propyl)pyrrolo[2,1-f][1,2,4]triazin-4-amine]	12 nM	78	917	Lck[IC50]/Btk[IC50] [3]: 40
CCN(CC)CC(=O)N1CCC(c2c(CCCN3CCCC3)c(-c3ccc(Oc4cccc(Cl)c4)c(OC)c3)c3c(N)ncnn23)CC1 [Example 21(1), 1-(4-(4-amino-5-(4-(3-chlorophenoxy)-3-methoxyphenyl)-6-(3-(pyrrolidin-1-yl)propyl)pyrrolo[2,1-f][1,2,4]triazin-7-yl)piperidin-1-yl)-2-(diethylamino)ethanone]	22 nM	–	–	–
CCN(CC)CC(=O)N1CCC(c2c(CCCN3CCCC3)c(-c3ccc(Oc4ccc(Cl)c(Cl)c4)c(OC)c3)c3c(N)ncnn23)CC1 [Example 21, 1-(4-(4-amino-5-(4-(3,4-dichlorophenoxy)-3-methoxyphenyl)-6-(3-(pyrrolidin-1-yl)propyl)pyrrolo[2,1-f][1,2,4]triazin-7-yl)piperidin-1-yl)-2-(diethylamino)ethanone]	16 nM	–	–	–
COc1cc(-c2c(C3CCNCC3)c(C3CCCC3)n3ncnc(N)c23)ccc1Oc1ccc(Cl)c(Cl)c1 [Example 25(1), 7-cyclopentyl-5-(4-(3,4-dichlorophenoxy)-3-methoxyphenyl)-6-(piperidin-4-yl)pyrrolo[2,1-f][1,2,4]triazin-4-amine]	62 nM	–	–	–
C=CC(=O)N1CCCC(c2c(Cl)c(-c3ccc(Oc4ccc(Cl)c(Cl)c4)c(OC)c3)c3c(N)ncnn23)C1 (stereo not drawn) [Example 32(1), 1-(3-(4-amino-6-chloro-5-(4-(3,4-dichlorophenoxy)-3-methoxyphenyl)pyrrolo[2,1-f][1,2,4]triazin-7-yl)piperidin-1-yl)prop-2-en-1-one]	2 nM	10000	>10000	–
C=CC(=O)N1CCCC(c2c(Cl)c(-c3ccc(Oc4cccc(Cl)c4)c(OC)c3)c3c(N)ncnn23)C1 (stereo not drawn) [Example 32, 1-(3-(4-amino-6-chloro-5-(4-(3-chlorophenoxy)-3-methoxyphenyl)pyrrolo[2,1-f][1,2,4]triazin-7-yl)piperidin-1-yl)prop-2-en-1-one]	2 nM	1389	7222	clearance ([5]; intravenous, oral 2 mg/kg / i.v. 1 mg/kg study): 17.8 mL/day/kg; bioavailability ([5]; from AUC oral 2 mg/kg and AUC i.v. 1 mg/kg, read-out: B.A. (Bioavailability)): 24%; AUC [5, 7]: 652 ng·h/mL; Cmax [5, 7]: 227 ng/mL; Lck[IC50]/Btk[IC50] [3]: 161; IC50 [6]: 130 nM
